These results are taken from ChEMBL document CHEMBL5696442, “Discovery of type II inhibitors of TGFβ-activated kinase 1 (TAK1) and mitogen-activated protein kinase kinase kinase kinase 2 (MAP4K2)” (J Med Chem, 2015).

By inhibition is commonly meant the drop in the measured response relative to a control, in per cent. A word on the residual activity: it is the activity still measured, relative to the control. A low value points to little activity left.

The source made the active and inactive calls. No cut-off for these calls is given here.

The target in experiment [1] is T1, Serine/threonine-protein kinase Chk1 (Homo sapiens) (UniProt O14757).
T1 sequence (whole entry): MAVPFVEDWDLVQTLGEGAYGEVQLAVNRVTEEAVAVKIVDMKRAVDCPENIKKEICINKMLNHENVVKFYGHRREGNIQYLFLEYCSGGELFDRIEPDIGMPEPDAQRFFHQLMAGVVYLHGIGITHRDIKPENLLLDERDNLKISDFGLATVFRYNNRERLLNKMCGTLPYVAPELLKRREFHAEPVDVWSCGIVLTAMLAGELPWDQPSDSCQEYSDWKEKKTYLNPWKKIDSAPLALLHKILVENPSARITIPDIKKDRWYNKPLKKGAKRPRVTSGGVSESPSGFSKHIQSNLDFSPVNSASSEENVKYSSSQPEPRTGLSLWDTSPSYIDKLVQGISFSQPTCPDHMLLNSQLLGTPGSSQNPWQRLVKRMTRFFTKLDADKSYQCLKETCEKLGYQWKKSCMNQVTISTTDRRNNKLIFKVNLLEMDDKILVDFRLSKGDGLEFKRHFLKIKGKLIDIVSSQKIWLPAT
Briefly: Inhibition of CHK1 Lys2 labeling site in human Huh-7 cells at 1 uM by KiNativ Profiling analysis relative to control. The experiment is classed as cell-based.

The target in experiment [2] is Cyclin-dependent kinase 7 (Homo sapiens) (UniProt P50613). Briefly: Inhibition of CDK7 Lys2 labeling site in human Huh-7 cells at 1 uM by KiNativ Profiling analysis relative to control. The format is cell-based.
Experiment [3] deals with Rho-associated protein kinase 1 (Homo sapiens) (UniProt Q13464). Briefly: Inhibition of ROCK1 Lys2 labeling site in human Huh-7 cell lysate at 1 uM by KiNativ Profiling analysis relative to control. The experiment is classed as subcellular.
Chain of Rho-associated protein kinase 1 (Homo sapiens) (Q13464 2-1354 limits assumed): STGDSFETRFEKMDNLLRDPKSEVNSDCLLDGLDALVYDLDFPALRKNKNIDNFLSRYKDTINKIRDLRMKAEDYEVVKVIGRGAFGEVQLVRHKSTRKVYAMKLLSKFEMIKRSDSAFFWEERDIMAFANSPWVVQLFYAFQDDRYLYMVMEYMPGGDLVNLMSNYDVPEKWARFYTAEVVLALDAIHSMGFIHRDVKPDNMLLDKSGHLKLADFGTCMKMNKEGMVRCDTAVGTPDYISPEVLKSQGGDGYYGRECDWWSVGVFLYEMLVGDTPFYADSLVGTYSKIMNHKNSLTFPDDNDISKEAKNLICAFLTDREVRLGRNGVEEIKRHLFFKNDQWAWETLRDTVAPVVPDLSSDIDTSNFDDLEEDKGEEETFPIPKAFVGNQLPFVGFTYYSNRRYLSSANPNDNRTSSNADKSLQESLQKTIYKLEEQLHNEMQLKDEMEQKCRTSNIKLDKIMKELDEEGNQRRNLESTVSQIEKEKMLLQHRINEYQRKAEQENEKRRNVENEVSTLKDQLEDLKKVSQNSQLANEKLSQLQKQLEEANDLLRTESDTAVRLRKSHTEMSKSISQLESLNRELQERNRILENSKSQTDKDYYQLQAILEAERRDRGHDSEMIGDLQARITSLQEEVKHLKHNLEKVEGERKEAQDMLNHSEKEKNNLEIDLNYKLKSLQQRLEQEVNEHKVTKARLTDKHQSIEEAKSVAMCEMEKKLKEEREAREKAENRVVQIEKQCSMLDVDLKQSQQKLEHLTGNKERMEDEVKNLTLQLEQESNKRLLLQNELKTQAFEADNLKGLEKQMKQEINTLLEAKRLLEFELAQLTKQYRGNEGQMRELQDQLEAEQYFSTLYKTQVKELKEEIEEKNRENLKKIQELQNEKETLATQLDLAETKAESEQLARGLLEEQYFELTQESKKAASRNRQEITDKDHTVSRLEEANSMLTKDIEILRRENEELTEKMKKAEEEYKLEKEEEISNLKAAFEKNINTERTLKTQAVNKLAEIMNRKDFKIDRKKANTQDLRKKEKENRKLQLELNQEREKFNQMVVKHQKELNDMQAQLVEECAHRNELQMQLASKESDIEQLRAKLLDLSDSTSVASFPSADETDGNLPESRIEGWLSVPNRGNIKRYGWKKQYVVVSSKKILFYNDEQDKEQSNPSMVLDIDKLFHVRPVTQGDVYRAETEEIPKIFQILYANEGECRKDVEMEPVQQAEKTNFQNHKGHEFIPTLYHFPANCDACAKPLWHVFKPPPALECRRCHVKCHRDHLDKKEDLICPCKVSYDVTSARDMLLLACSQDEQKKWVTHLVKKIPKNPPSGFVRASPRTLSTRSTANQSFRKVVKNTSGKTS
The target in experiment [4] is DNA-PK/Ku70/Ku85 (Homo sapiens) (UniProt P78527+P12956+P13010). Briefly: Inhibition of DNAPK ATP labeling site harbouring EHPFLVKGGEDLR in human Huh-7 cell lysate at 1 uM by KiNativ Profiling analysis relative to control. The experiment is classed as subcellular.
The target in experiment [5] is T2, NUAK family SNF1-like kinase 1 (Homo sapiens) (UniProt O60285).
T2 sequence (whole entry): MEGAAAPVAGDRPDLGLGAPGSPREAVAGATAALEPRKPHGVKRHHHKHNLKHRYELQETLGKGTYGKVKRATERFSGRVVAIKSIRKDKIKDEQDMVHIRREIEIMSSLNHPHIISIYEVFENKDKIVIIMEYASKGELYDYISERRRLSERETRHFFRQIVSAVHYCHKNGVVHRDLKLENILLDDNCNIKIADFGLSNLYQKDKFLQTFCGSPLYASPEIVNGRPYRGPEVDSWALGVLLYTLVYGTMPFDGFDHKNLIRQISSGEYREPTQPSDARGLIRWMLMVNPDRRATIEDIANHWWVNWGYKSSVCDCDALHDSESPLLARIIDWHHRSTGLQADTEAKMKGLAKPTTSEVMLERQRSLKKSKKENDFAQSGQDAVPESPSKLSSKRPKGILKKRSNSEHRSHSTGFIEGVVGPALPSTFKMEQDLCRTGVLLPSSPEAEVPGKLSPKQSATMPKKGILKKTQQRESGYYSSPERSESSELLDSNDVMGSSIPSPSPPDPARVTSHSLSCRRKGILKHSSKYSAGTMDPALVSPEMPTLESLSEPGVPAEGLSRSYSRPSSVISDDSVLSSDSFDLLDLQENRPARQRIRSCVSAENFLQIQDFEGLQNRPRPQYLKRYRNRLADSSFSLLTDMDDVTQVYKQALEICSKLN
Briefly: Inhibition of NuaK1 Lys2 labeling site in human Huh-7 cells at 1 uM by KiNativ Profiling analysis relative to control. The experiment is classed as cell-based.

For experiment [6], the target named is Serine/threonine-protein kinase OSR1 (Homo sapiens) (UniProt O95747). Briefly: Inhibition of OSR1 Lys2 labeling site in human Huh-7 cells at 1 uM by KiNativ Profiling analysis relative to control.
Chain of Serine/threonine-protein kinase OSR1 (Homo sapiens) (O95747 whole entry, looked up, canonical isoform): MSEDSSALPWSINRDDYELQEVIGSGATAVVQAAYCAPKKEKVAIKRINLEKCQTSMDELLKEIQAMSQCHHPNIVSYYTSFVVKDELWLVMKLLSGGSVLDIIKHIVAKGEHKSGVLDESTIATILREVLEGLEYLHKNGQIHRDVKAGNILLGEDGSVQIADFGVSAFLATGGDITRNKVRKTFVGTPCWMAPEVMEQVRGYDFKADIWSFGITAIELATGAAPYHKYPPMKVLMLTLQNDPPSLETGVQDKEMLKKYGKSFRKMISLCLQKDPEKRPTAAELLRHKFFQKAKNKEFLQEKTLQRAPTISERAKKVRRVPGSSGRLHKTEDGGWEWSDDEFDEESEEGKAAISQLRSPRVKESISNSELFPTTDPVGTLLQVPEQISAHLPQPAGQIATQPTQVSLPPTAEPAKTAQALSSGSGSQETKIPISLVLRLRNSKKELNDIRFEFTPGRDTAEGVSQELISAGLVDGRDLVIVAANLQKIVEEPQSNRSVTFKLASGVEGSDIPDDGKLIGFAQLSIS
The target of experiment [7] is Casein kinase I isoform epsilon (Homo sapiens) (UniProt P49674). Briefly: Inhibition of CK1epsilon Lys2 labeling site in human A-375 cells at 5 uM by KiNativ Profiling analysis relative to control. The format is cell-based.
Experiment [8] concerns Epidermal growth factor receptor (Homo sapiens), P00533 [L861Q]. Briefly: Inhibition of EGFR L861Q mutant (unknown origin) at 1 uM by Ambit Kinomescan binding assay relative to control.
In experiment [9] the test system is Mast/stem cell growth factor receptor Kit (Homo sapiens), P10721 [A829P]. Briefly: Inhibition of KIT A829P mutant (unknown origin) at 1 uM by Ambit Kinomescan binding assay relative to control; values are per cent of control.
Chain of Mast/stem cell growth factor receptor Kit (Homo sapiens), P10721 [A829P] (P10721 whole entry A829P): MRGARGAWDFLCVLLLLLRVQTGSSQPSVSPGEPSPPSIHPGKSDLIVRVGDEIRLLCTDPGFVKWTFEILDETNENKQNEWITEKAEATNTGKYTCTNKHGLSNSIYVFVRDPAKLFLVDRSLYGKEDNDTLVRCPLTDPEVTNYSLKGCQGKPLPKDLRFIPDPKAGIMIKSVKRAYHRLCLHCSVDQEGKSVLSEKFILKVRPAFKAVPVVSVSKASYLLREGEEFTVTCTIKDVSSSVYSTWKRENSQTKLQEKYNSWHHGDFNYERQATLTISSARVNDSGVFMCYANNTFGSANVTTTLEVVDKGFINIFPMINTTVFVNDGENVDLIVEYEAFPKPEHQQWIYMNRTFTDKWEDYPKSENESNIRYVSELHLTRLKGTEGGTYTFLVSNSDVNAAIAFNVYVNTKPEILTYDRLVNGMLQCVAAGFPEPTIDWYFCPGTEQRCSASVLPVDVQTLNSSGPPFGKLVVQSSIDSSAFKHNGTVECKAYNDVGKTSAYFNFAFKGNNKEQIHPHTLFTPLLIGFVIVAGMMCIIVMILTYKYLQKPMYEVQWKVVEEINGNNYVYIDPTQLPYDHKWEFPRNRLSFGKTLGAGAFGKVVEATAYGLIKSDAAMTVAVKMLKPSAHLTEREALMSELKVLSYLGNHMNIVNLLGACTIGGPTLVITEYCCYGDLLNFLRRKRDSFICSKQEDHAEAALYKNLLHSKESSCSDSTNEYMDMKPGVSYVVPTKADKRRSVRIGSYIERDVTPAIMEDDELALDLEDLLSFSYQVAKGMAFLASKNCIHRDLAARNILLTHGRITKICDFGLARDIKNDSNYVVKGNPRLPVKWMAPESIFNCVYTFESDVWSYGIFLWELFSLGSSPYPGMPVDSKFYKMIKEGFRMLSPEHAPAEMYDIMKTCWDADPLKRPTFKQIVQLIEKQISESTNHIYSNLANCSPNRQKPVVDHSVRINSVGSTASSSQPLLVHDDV
Experiment [10] has as its target Serine/threonine-protein kinase Chk2 (Homo sapiens) (UniProt O96017). Briefly: Inhibition of CHK2 Lys1 labeling site in human A-375 cells at 0.5 uM by KiNativ Profiling analysis relative to control. The experiment is classed as cell-based.
The target in experiment [11] is Ephrin type-A receptor 5 (Homo sapiens) (UniProt P54756). Briefly: Inhibition of EPHA5 (unknown origin) at 1 uM by Ambit Kinomescan binding assay relative to control.
Chain of Ephrin type-A receptor 5 (Homo sapiens) (P54756 whole entry): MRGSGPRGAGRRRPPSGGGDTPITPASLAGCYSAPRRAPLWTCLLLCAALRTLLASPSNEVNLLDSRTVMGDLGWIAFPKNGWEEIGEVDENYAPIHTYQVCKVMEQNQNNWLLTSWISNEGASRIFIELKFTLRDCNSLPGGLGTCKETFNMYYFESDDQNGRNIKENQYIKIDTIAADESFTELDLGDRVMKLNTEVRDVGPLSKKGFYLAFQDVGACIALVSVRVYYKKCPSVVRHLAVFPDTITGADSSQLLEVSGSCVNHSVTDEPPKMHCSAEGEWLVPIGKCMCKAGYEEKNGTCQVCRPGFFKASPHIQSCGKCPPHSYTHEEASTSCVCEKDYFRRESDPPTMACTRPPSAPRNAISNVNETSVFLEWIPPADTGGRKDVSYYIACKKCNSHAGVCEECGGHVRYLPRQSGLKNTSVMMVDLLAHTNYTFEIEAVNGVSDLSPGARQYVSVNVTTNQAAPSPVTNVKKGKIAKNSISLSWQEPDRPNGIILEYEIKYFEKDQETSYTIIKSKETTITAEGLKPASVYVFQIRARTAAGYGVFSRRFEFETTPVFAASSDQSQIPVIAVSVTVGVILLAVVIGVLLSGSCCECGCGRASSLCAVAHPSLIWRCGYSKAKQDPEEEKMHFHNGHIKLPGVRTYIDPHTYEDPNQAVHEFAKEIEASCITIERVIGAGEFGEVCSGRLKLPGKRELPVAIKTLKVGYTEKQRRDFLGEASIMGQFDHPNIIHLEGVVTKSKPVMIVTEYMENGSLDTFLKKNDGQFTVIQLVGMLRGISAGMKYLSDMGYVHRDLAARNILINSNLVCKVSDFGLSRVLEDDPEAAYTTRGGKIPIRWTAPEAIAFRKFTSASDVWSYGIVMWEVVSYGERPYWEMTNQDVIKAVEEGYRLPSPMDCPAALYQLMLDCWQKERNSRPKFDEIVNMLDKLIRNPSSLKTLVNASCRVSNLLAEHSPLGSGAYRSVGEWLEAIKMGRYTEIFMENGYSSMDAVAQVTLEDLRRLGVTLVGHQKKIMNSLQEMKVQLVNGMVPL
Experiment [12] deals with T3, Phosphatidylinositol 5-phosphate 4-kinase type-2 gamma (Homo sapiens) (UniProt Q8TBX8).
T3 sequence (whole entry): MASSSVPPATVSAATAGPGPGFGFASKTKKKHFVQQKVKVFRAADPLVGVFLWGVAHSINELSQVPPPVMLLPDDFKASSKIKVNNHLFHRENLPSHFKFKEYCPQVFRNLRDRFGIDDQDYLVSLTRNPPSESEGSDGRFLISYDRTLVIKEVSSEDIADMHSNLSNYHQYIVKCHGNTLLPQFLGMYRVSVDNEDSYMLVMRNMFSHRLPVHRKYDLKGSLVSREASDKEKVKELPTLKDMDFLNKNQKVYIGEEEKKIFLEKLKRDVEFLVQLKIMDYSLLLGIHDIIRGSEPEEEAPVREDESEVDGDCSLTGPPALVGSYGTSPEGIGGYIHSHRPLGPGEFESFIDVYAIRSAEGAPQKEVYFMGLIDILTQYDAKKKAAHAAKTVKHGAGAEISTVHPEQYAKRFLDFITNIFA
Briefly: Inhibition of PIP5K2C C2 labeling site in human Huh-7 cells at 10 uM by KiNativ Profiling analysis relative to control. The format is cell-based.

Experiment [13] deals with Dual specificity mitogen-activated protein kinase kinase 1 (Homo sapiens) (UniProt Q02750). Briefly: Inhibition of MAP2K1 Lys1 labeling site in human A-375 cells at 0.05 uM by KiNativ Profiling analysis relative to control. The format is cell-based.
Chain of Dual specificity mitogen-activated protein kinase kinase 1 (Homo sapiens) (Q02750 whole entry): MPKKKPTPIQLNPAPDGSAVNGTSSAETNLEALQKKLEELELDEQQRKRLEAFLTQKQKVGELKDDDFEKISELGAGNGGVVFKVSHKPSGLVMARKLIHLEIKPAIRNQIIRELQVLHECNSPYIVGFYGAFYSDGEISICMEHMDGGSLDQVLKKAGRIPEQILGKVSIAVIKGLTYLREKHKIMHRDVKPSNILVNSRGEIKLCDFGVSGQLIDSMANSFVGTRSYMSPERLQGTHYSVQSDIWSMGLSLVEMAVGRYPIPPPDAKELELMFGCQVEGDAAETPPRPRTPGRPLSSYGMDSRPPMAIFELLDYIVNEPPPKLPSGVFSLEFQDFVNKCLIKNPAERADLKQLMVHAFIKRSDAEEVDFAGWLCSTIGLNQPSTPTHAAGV
Experiment [14] concerns the target Serine/threonine-protein kinase SIK2 (Homo sapiens) (UniProt Q9H0K1). Briefly: Inhibition of SIK2 (unknown origin) at 10 uM by Ambit Kinomescan binding assay.
In experiment [15] the target is Ribosomal protein S6 kinase alpha-1 (Homo sapiens) (UniProt Q15418). Briefly: Inhibition of RSK1 Domain 1 ACT labeling site harbouring LTDFGLSKEAIDHEKK in human Huh-7 cells at 1 uM by KiNativ Profiling analysis relative to control. The experiment is classed as cell-based.
Chain of Ribosomal protein S6 kinase alpha-1 (Homo sapiens) (Q15418 whole entry, the tested form may be a part): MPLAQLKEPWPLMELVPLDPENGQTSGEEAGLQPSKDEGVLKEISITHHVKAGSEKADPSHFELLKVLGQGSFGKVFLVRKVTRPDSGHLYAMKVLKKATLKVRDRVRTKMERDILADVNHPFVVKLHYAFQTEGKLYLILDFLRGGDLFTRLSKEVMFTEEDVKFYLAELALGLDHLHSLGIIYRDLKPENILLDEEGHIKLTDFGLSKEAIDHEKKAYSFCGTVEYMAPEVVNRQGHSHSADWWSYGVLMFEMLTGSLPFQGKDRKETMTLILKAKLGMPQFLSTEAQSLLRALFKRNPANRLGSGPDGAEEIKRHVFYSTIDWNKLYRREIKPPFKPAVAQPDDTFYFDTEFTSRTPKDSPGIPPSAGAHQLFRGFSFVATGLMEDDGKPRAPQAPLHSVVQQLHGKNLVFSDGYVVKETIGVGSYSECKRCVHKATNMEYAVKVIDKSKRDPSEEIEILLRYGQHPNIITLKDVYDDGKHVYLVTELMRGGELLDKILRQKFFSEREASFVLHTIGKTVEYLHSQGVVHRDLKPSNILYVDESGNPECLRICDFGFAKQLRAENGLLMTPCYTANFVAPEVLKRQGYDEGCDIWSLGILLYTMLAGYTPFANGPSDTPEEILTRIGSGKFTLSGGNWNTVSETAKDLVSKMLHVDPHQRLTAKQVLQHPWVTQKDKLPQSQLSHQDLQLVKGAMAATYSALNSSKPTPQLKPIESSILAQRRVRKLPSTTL

As for `CNc1cc(Oc2cc(C(=O)Nc3cc(N4CCN(C)CC4)cc(C(F)(F)F)c3)ccc2C)ncn1`, the inhibition in experiment [1] was 22.5%; in experiment [2], 2.6%; in experiment [3] it was 2.7%; in experiment [4] it was -6.7%; in experiment [5] it was 20.5%; in [6] it was 57.3%.
For `CCN1CCN(Cc2ccc(NC(=O)c3ccc(C)c(/C=C/c4cnc5[nH]ccc5c4OC)c3)cc2C(F)(F)F)CC1`, the inhibition in experiment [7] was 1.4%; in experiment [8], 0.25%; in experiment [10] it was -4.8%; in experiment [11], 21%. This compound also displayed a residual activity in experiment [9] of 8%.
For `CCN1CCN(Cc2ccc(NC(=O)c3ccc(C)c(Oc4ccnc5[nH]ccc45)c3)cc2C(F)(F)F)CC1`, the inhibition in experiment [12] is 2.3%; in experiment [13], 2.9%; in experiment [15] it was 6.9%. Also, the inhibition result in [14] is “inactive”.
